Measured values from US5662604A, “Monitoring method of renal lesions without clinical signs” (Asahi Kasei Kogyo Kabushiki Kaisha, priority 1995, dated 1997).
“And” between values parts separate entries of the source, which are not always exact repeats. Equal entries are not always repeated. Structures can show the parent of a compound that is named as a salt.

What was measured:
[1] = system: membrane component of rat renal cortex; test: Biological activity (cAMP generation, radioimmunoassay) by parallel test against bovine-PTH (1-84) standard; type: biochemical
Excerpt: Biological activity of teriparatide acetate unit can be determined by a parallel test wherein reacting a membrane component of rat renal cortex with teriparatide acetate and assaying generated cAMP by radioimmunoassay. The specific activity of teriparatide acetate is 3,300 units/mg by a parallel test using the standard substance of bovine-PTH (1-84).

urinary NAG [2] = test: Urinary NAG response to intravenous h-PTH(1-34) in healthy male volunteers (Referential Example); type: in vivo
Description: Method: Fourteen (14) healthy male volunteers were used.
Prior to 60 minutes for intravenous administration of h-PTH(1-34) 100 units, complete excretion of urine was performed. 200 ml of drinking water was given to the individual volunteers and urine was collected immediately before administration of […]. Then, h-PTH(1-34) 100 units were administered intravenously and 200 ml of drinking water was given to the volunteers, and after 60 minutes urine was again collected. Each of urinary NAG and creatinine in 0.5 ml of urine was measured, and an increased ratio of urinary excreted NAG was calculated. NAG value was corrected by creatinine value.
For an assay of NAG, NAG Test Shionogi (Shionogi Pharm. Co., assay method: mcp colorimetry) was used, and for that of creatinine, creatinine-HR (Wako Pure, Chem. Co., assay method: alkali picric acid method) was used. Table 1 illustrates the various parameters, i.e. NAG, AER and serum Cr, in pre- or post-administration of PTH for healthy male volunteers.
NAG value corrected by creatinine (unit: U/g Cr) is calculated by the equation;
Urinary NAG (Unit:U/l).div.urinary creatinine (unit:mg/dl)×100.
The normal range of urinary NAG value after administration of PTH in healthy volunteers is defined according to the results obtained hereinabove as follows. The normal range is calculated by mean ±2 S.D.

urinary NAG [3] = test: Urinary NAG response to intravenous h-PTH(1-34) in patients with diabetes mellitus having AER below 15 μg/min (Example 2); type: in vivo
Description: The predetermined dose of h-PTH(1-34), for example, is administered intravenously in the patients to carry out the monitoring method of the present invention. The patients are diabetes mellitus patients with an AER value below 15 μg/min., showing latent abnormal renal function without detecting manifestation of abnormal renal function. The h-PTH (1-34) is, for example, administered to these patients. Urinary excreted NAG of the patients can be assayed by hydrolysing a substrate NAG, i.e. sodium-cresol-sulfophthaleinyl-N-acetyl-β-D-glucosaminide (MCP-NAG), by NAG, coloring the thus generated m-cresol purple under alkaline condition by adding sodium carbonate and measuring colorimetrically 580 nm. Urinary NAG value is expressed, for example, as U/l (NAG active unit in one liter of urine). Urinary excreted NAG of the patients before administration of PTH and that after administration of PTH are measured, and an increased ratio of urinary excreted NAG value in the post-administration of PTH against the urinary excreted NAG value in the pre-administration of PTH is calculated.
Urine of the pre-administration is collected by excretion after accumulating the urine at a constant time interval, preferably 60 min.±10 min., previously after excreting urine in the pre-administration of PTH. Collecting urine is preferably performed immediately before administration of PTH. Urine of the post-administrationis collected after accumulating the urine under the same condition in the pre-administration, i.e. after a constant time interval of 60 min.±10 min., because of performing excretion (collection) of urine immediately before administration of PTH. For effective accumulation of urine, a suitable amount of drinking water, for example 100-300 ml, may be given to the patients. Urinary NAG value can be measured using a specimen of 0.05-1 ml. Since a suitable volume of water is given to the patients, a correction of the NAG value is needed. Accordingly, a parameter of urine volume and concentration, for example another component such as urinary creatinine concentration (expressed as mg/dl) is measured, and NAG value per creatinine value is obtained. A corrected value of NAG for creatinine (Unit: U/g Cr) is calculated by;
Urinary NAG (U/l ).div.urinary creatinine (mg/dl)×100.
Method: Eighteen (18) patients with diabetes mellitus having AER within normal range (below 15 μg/min.) were used.
Sixty minutes prior to intravenous administration of 100 units of h-PTH(1-34), complete excretion of urine was performed. 200 ml of drinking water were given to the individual volunteers and urine was collected immediately before administration of h-PTH(1-34). Then 100 units of h-PTH(1-34) were administered intravenously and 200 ml of drinking water were given for intake, and after 60 minutes urine was collected. Each of urinary NAG and creatinine in 0.5 ml of urine was measured to calculate the increased ratio of urinary excreted NAG. The NAG value was corrected by creatinine value.
Tables 2 and 3 show the various parameters in pre- and post-administration of PTH for the patients of diabetes mellitus showing the value with the normal range of AER (below 15 μg/min.).

urinary excretion of NAG = settings: intravenous; IHP and PHP patients; Calcif. Tissue Int., 45(6):375 (1989); cited from earlier work
[4] = mean of 14 healthy male volunteers, 100 units i.v., 60 min
[5] = mean of 18 diabetic patients, 100 units i.v., 60 min
[6] = of 18 diabetic patients, 100 units i.v.

In the case of teriparatide acetate, the Specific activity ([1]; parallel test using standard substance of bovine-PTH (1-84)) is reported as 3,300 units/mg.
For `CC[C@H](C)[C@H](NC(=O)[C@H](CCC(=O)O)NC(=O)[C@H](CO)NC(=O)[C@@H](NC(=O)[C@@H](N)CO)C(C)C)C(=O)N[C@@H](CCC(N)=O)C(=O)N[C@@H](CC(C)C)C(=O)N[C@@H](CCSC)C(=O)N[C@@H](Cc1cnc[nH]1)C(=O)N[C@@H](CC(N)=O)C(=O)N[C@@H](CC(C)C)C(=O)NCC(=O)N[C@@H](CCCCN)C(=O)N[C@@H](Cc1cnc[nH]1)C(=O)N[C@@H](CC(C)C)C(=O)N[C@@H](CC(N)=O)C(=O)N[C@@H](CO)C(=O)N[C@@H](CCSC)C(=O)N[C@@H](CCC(=O)O)C(=O)N[C@@H](CCCN=C(N)N)C(=O)N[C@H](C(=O)N[C@@H](CCC(=O)O)C(=O)N[C@@H](Cc1c[nH]c2ccccc12)C(=O)N[C@@H](CC(C)C)C(=O)N[C@@H](CCCN=C(N)N)C(=O)N[C@@H](CCCCN)C(=O)N[C@@H](CCCCN)C(=O)N[C@@H](CC(C)C)C(=O)N[C@@H](CCC(N)=O)C(=O)N[C@@H](CC(=O)O)C(=O)N[C@H](C(=O)N[C@@H](Cc1cnc[nH]1)C(=O)N[C@@H](CC(N)=O)C(=O)N[C@@H](Cc1ccccc1)C(=O)O)C(C)C)C(C)C` [Teriparatide hydrochloride], the “Specific activity of the bulk used for the injection” value ([1]; Example 1, Teriparatide hydrochloride) was 3,333 teriparatide acetate units/mg.
For “h-PTH(1-34): h-PTH(1-34) having molecular weight about 4,400 with 34 imino acids sequence”, the “Urinary excretion of NAG (in words)” value (urinary NAG [2]; administration of human-PTH (1-34) in healthy volunteers) was “increased urinary excretion of NAG”, the “Normal range of increased ratio of urinary NAG in post-administration to pre-administration” value (urinary NAG [2]; healthy volunteers, mean ±2 S.D.) was 2.4-4.7 and the “Urinary NAG post-” value (urinary NAG [2]; individual healthy male volunteers, 100 units h-PTH(1-34) i.v., urine 60 min after) was 5.9 U/gCr and 8.6 U/gCr and 10.7 U/gCr and 5.7 U/gCr and 7.3 U/gCr and 11.0 U/gCr and 14.7 U/gCr and 17.0 U/gCr and 10.0 U/gCr and 19.3 U/gCr and 6.4 U/gCr and 8.3 U/gCr and 9.8 U/gCr. The “Urinary NAG changes” value (urinary NAG [2]; individual healthy male volunteers, post minus pre, 100 units h-PTH(1-34) i.v., 60 min) was 4.3 U/gcr and 6.4 U/gcr and 7.4 U/gcr and 4.4 U/gcr and 4.9 U/gcr and 8.1 U/gcr and 9.7 U/gcr and 11.5 U/gcr and 7.3 U/gcr and 15.0 U/gcr and 5.8 U/gcr and 6.3 U/gcr and 6.2 U/gcr, the “Urinary NAG changes in ratio” value (urinary NAG [2]; individual healthy male volunteers, post/pre, 100 units h-PTH(1-34) i.v., 60 min) was 3.8 and 3.9 and 3.3 and 4.4 and 3.1 and 3.7 and 2.9 and 3.6 and 4.1 and 3.4 and 2.8 and 2.6 and the “Urinary NAG changes in ratio (increased ratio post-/pre-administration), mean” value (urinary NAG [2]; [4]) was 3.5 and 3.5±0.6. For the same molecule, the “Urinary NAG changes, mean” value (urinary NAG [2]; [4]) was 7.3 U/gcr, the “Urinary NAG post-, mean” value (urinary NAG [2]; [4]) was 10.3 U/gCr and 10.3±4.1 U/gCr and the “Urinary NAG post-” value (urinary NAG [3]; individual diabetic patients, AER below 15 μg/min, 100 units h-PTH(1-34) i.v., urine 60 min after) was 7.3 U/gCr and 7.8 U/gCr and 15.6 U/gCr and 7.5 U/gCr and 11.0 U/gCr and 12.2 U/gCr and 6.8 U/gCr and 17.5 U/gCr and 10.1 U/gCr and 15.3 U/gCr and 4.5 U/gCr and 23.9 U/gCr and 13.4 U/gCr and 15.9 U/gCr and 9.7 U/gCr and 6.7 U/gCr and 16.7 U/gCr. The “Urinary NAG changes” value (urinary NAG [3]; individual diabetic patients, post minus pre, 100 units h-PTH(1-34) i.v., 60 min) was 3.4 U/gcr and 3.9 U/gcr and 7.9 U/gcr and 3.7 U/gcr and 7.1 U/gcr and 4.9 U/gcr and 7.5 U/gcr and 5.8 U/gcr and 11.7 U/gcr and 2.2 U/gcr and 12.7 U/gcr and 8.1 U/gcr and 9.3 U/gcr and 5.1 U/gcr, the “Urinary NAG changes in ratio” value (urinary NAG [3]; individual diabetic patients, post/pre, 100 units h-PTH(1-34) i.v., 60 min) was 1.9 and 2.0 and 2.8 and 1.7 and 2.2 and 1.8 and 2.4 and 4.3 and 1.6 and 2.1 and 2.5 and 2.3 and 3.4 and the “Urinary NAG changes in ratio, mean” value (urinary NAG [3]; [5]) was 2.3. The “Urinary NAG changes, mean” value (urinary NAG [3]; [5]) was 6.5 U/gcr, the “Urinary NAG post-, mean” value (urinary NAG [3]; [5]) was 11.8 U/gCr and the “Number of patients with normal increased ratio of urinary excreted NAG (2.4-4.7)” value (urinary NAG [3]; [6]) was 6 subjects. The “Number of patients with significantly decreased increased ratio of urinary NAG (2.3), diagnosed as renal lesion without clinical symptoms of nephropathy” value (urinary NAG [3]; [6]) was 12 cases and the “Urinary excretion of NAG (in words)” value (urinary excretion of NAG) was “increased urinary excretion of NAG in only IHP”.
